According to patent US20010053796A1, “Delta-aminolevulinic acid for prevention and treatment of infection microorganisms and parasite” (priority 2000, published 2001):
Like-named read-outs stand apart in the source and are kept apart here.

Tests used:
[1] = system: Vibrio anguillarum; experiment: Prevention effect for artificial infection (abdominal injection of bacteria); format: in vivo, Bastardhalibut; details: for Mortality during Cultivation: dead of 20 fish
Description: The water temperature was maintained at 20° C. (±2° C. ) throughout the experiment.
As the same method of above Experiment 1, fishes of both control group and experiment group were prepared and artificially infected by direct abdominal injection of Edwardsiella tarda 10^5 CFU per 1 fish. Each experimental fish was moved to fish tanks for monitoring and monitored for mortality according to infection for 2 weeks and viability after 2 weeks.
Bastardhalibut and Sebastes schlegeli were infected by Vibrio anguillarum through abdominal injection with the same method of fish breeding; δ-aminolevulinic acid treatment and artificial infection carried out in Experiment 1 and 2.

[2] = system: Scutica; experiment: Extinction effect for Scutica in vitro; format: cell-based
Description: Scutica used in this experiment was taken from epidermal mucus of infected flatfish and suspended in HBSS. The suspension was kept at room temperature for 30 min and centrifuged at 800 rpm for 10 min. The supernatant was removed. The pellet was suspended in MEM-10 (minimum essential medium, 10% FBS, streptomycine, penicilin) and kept for 30 min, and then centrifuged in the same manner as above. The supernatant was removed and left imagoes was gained and made into imagoes suspension with certain number of imagoes by counting with the blood counting machine. The imagoes suspension was subcultured in vitro and inoculated to prepared FHM cell of certain number (2.5×10^5 cells/mL) and then cultured at 17° C. Before carrying out the experiment, by measuring the extinction effect for Scutica according to the concentration of δ-aminolevulinic acid and reaction time, optimum δ-aminolevulinic acid concentration and treatment time was examined for Scutica extermination. The Scutica culture solution cultured in FHM cell line was centrifuged at 3000 rpm for 5 min. The supernatant was removed and was added to PBS. It was washed 3 times to use for the experiment. 1.0 M δ-aminolevulinic acid solution made from sterilized 3rd distilled water was diluted by 2-fold up to 1000-fold (1.0 mM). Scutica was added to each well of 96-well microplate at an amount of 50 μL. Then, δ-aminolevulinic acid solution diluted by 2 steps were added and cultured for 120 min while the viability of Scutica was monitored. During the culture for 120 min, extinction time was measured in 10 min intervals, at each concentration. Between each inoculation, they were stirred for 5 min and were kept for 5 min. after reaction, 1% trypan blue which is staining solution for organism was added to each wells at an amount of 100 μL and mixed. In cultured Scutica with the diluted solution of δ-aminolevulinic acid, the number of parasites was counted by the blood counting machine, according to time. […] Through the 60 min-treatment, more than 50% of Scutica were extinct. At the actual concentration of 2 mM, about 50% of Scutica was extinct through 1 hour-treatment.

`NCC(=O)CCC(=O)O` [δ-aminolevulinic acid] was tested, and the Viability ([1]; orally, 0.1 ppm in feed) was 65%, the “Mortality during Cultivation” value ([1]; orally, 0.1 ppm in feed) was 7 and the Viability ([1]; orally, 1.0 ppm in feed) was 55%. For the same compound, the “Mortality during Cultivation” value ([1]; orally, 1.0 ppm in feed) was 9, the Viability ([1]; orally, 10 ppm in feed) was 85% and the “Mortality during Cultivation” value ([1]; orally, 10 ppm in feed) was 3. The Viability ([1]; orally, 100 ppm in feed) was 90%, the “Mortality during Cultivation” value ([1]; orally, 100 ppm in feed) was 2 and the Viability ([1]; to fish tanks, 0.01 ppm) was 65%. The “Mortality during Cultivation” value ([1]; to fish tanks, 0.01 ppm) was 7, the Viability ([1]; to fish tanks, 0.1 ppm) was 65% and the “Mortality during Cultivation” value ([1]; to fish tanks, 0.1 ppm) was 7. For the same compound, the Viability ([1]; to fish tanks, 1.0 ppm) was 80%, the “Mortality during Cultivation” value ([1]; to fish tanks, 1.0 ppm) was 2 and the Viability ([1]; to fish tanks, 10 ppm) was 85%. For the same compound, the “Mortality during Cultivation” value ([1]; to fish tanks, 10 ppm) was 3, the Scutica extinct ([2]; 500 mM to 2 mM, treatment of at minimum 2 hours) was “more than 90%” and the “time to completely extinct Scutica” value ([2]; 30˜15 mM) was 20 min. The “time to completely extinct Scutica” value ([2]; 500 to 60 mM) was 10 min, the Scutica extinct ([2]; 60 min-treatment, concentration not given) was “more than 50%” and the Scutica extinct ([2]; actual concentration of 2 mM, 1 hour-treatment) was “about 50%”. The “time to completely extinct Scutica” value ([2]; actual concentration of 8 mM) was 60 min, the viability at 2000 µM ([2]; read-out: Viability (%) of Scutica, 2.0 mM, reaction time 10) was 50% and the viability at 2000 µM ([2]; read-out: Viability (%) of Scutica, 2.0 mM, reaction time 20) was 60%. For the same compound, the viability at 2000 µM ([2]; read-out: Viability (%) of Scutica, 2.0 mM, reaction time 30) was 40%, the viability at 2000 µM ([2]; read-out: Viability (%) of Scutica, 2.0 mM, reaction time 40) was 45% and the viability at 2000 µM ([2]; read-out: Viability (%) of Scutica, 2.0 mM, reaction time 50) was 35%. The viability at 2000 µM ([2]; read-out: Viability (%) of Scutica, 2.0 mM, reaction time 60) was 55%, the viability at 2000 µM ([2]; read-out: Viability (%) of Scutica, 2.0 mM, reaction time 70) was 40% and the viability at 2000 µM ([2]; read-out: Viability (%) of Scutica, 2.0 mM, reaction time 80) was 40%. It also gave a viability at 2000 µM ([2]; read-out: Viability (%) of Scutica, 2.0 mM, reaction time 90) of 35%, a viability at 2000 µM ([2]; read-out: Viability (%) of Scutica, 2.0 mM, reaction time 110) of 40% and a viability at 2000 µM ([2]; read-out: Viability (%) of Scutica, 2.0 mM, reaction time 120) of 10%. The viability at 4000 µM ([2]; read-out: Viability (%) of Scutica, 4.0 mM, reaction time 10) was 50%, the viability at 4000 µM ([2]; read-out: Viability (%) of Scutica, 4.0 mM, reaction time 20) was 50% and the viability at 4000 µM ([2]; read-out: Viability (%) of Scutica, 4.0 mM, reaction time 30) was 30%. The viability at 4000 µM ([2]; read-out: Viability (%) of Scutica, 4.0 mM, reaction time 40) was 30%, the viability at 4000 µM ([2]; read-out: Viability (%) of Scutica, 4.0 mM, reaction time 50) was 20% and the viability at 4000 µM ([2]; read-out: Viability (%) of Scutica, 4.0 mM, reaction time 60) was 45%. For the same compound, the viability at 4000 µM ([2]; read-out: Viability (%) of Scutica, 4.0 mM, reaction time 70) was 30%, the viability at 4000 µM ([2]; read-out: Viability (%) of Scutica, 4.0 mM, reaction time 80) was 45% and the viability at 4000 µM ([2]; read-out: Viability (%) of Scutica, 4.0 mM, reaction time 90) was 40%. The viability at 4000 µM ([2]; read-out: Viability (%) of Scutica, 4.0 mM, reaction time 110) was 10%, the viability at 4000 µM ([2]; read-out: Viability (%) of Scutica, 4.0 mM, reaction time 120) was 10% and the viability at 8000 µM ([2]; read-out: Viability (%) of Scutica, 8.0 mM, reaction time 10) was 45%. For the same compound, the viability at 8000 µM ([2]; read-out: Viability (%) of Scutica, 8.0 mM, reaction time 20) was 50%, the viability at 8000 µM ([2]; read-out: Viability (%) of Scutica, 8.0 mM, reaction time 30) was 45% and the viability at 8000 µM ([2]; read-out: Viability (%) of Scutica, 8.0 mM, reaction time 40) was 25%. It also gave a viability at 8000 µM ([2]; read-out: Viability (%) of Scutica, 8.0 mM, reaction time 50) of 40%, a viability at 8000 µM ([2]; read-out: Viability (%) of Scutica, 8.0 mM, reaction time 60) of 40% and a viability at 8000 µM ([2]; read-out: Viability (%) of Scutica, 8.0 mM, reaction time 70) of 0%. The viability at 8000 µM ([2]; read-out: Viability (%) of Scutica, 8.0 mM, reaction time 80) was 0%, the viability at 8000 µM ([2]; read-out: Viability (%) of Scutica, 8.0 mM, reaction time 90) was 0% and the viability at 8000 µM ([2]; read-out: Viability (%) of Scutica, 8.0 mM, reaction time 110) was 0%. For the same compound, the viability at 8000 µM ([2]; read-out: Viability (%) of Scutica, 8.0 mM, reaction time 120) was 0%, the viability at 15000 µM ([2]; read-out: Viability (%) of Scutica, 15 mM, reaction time 10) was 30% and the viability at 15000 µM ([2]; read-out: Viability (%) of Scutica, 15 mM, reaction time 20) was 0%. For the same compound, the viability at 15000 µM ([2]; read-out: Viability (%) of Scutica, 15 mM, reaction time 30) was 0%, the viability at 15000 µM ([2]; read-out: Viability (%) of Scutica, 15 mM, reaction time 40) was 0% and the viability at 15000 µM ([2]; read-out: Viability (%) of Scutica, 15 mM, reaction time 50) was 0%.
